{"source": "patent US10041104B2", "about": "“Microfluidic device” (Astrego Diagnostics AB, priority 2014, dated 2018)", "key": {"[1]": {"test_system": "chloramphenicol-susceptible E. coli strain", "assay": "minimum inhibitory concentration (MIC)", "format": "cell-based", "conditions": "Escherichia coli"}, "[2]": {"test_system": "chloramphenicol-susceptible and chloramphenicol-resistant E. coli strains", "assay": "AST test in microfluidic device, phase contrast images (FIG. 15)", "format": "cell-based, Escherichia coli", "conditions": "both strains exposed to 6 μg/ml chloramphenicol; images taken 15 min apart", "text": "The microfluidic device of the embodiments can be used for various applications. An example of such application is antibiotic susceptibility testing (AST). For example, the microfluidic device 1 shown in FIG. 10 can be used for this purpose. In such a case, the sample strain can be loaded from, for instance, the common second fluid port 33A using the first fluid ports 31A′, 31B′, 31C′ as output ports for excess cells and culture medium and the common third fluid port 51 as output port for culture medium and for sucking cells into the cell channels. In an example, during loading culture medium is flown from the common second fluid port 33C to the common second fluid port 33B to prevent contaminating the common second fluid port 33C. After cell loading culture medium preferably flows from the common second fluid port 33C using the first fluid ports 31A′, 31B′, 31C′ and the common third fluid port 51 as output ports. At this stage growth of the cells in the cell channels can be monitored for some time, 0 min to days, while imaging the cells in the different cell channels. […] Susceptibility is monitored by the phenotypic response to antibiotic in the different cell channels. […] Some phenotypic changes are best studied by addition of test agents, such as 4′,6-diamidino-2-phenylindole (DAPI) and SYTOX® fluorescent stains, that can be monitored in a florescence channel. […]"}, "[3]": {"test_system": "chloramphenicol-resistant E. coli strain", "assay": "minimum inhibitory concentration (MIC)", "format": "cell-based", "conditions": "Escherichia coli"}, "[4]": {"test_system": "ciprofloxacin resistant E. coli strain DA20859", "assay": "AST in microfluidic device, average growth rate response by phase contrast time lapse imaging (FIG. 18)", "format": "cell-based, Escherichia coli", "text": "The microfluidic device of the embodiments can be used for various applications. An example of such application is antibiotic susceptibility testing (AST). For example, the microfluidic device 1 shown in FIG. 10 can be used for this purpose. In such a case, the sample strain can be loaded from, for instance, the common second fluid port 33A using the first fluid ports 31A′, 31B′, 31C′ as output ports for excess cells and culture medium and the common third fluid port 51 as output port for culture medium and for sucking cells into the cell channels. In an example, during loading culture medium is flown from the common second fluid port 33C to the common second fluid port 33B to prevent contaminating the common second fluid port 33C. After cell loading culture medium preferably flows from the common second fluid port 33C using the first fluid ports 31A′, 31B′, 31C′ and the common third fluid port 51 as output ports. At this stage growth of the cells in the cell channels can be monitored for some time, 0 min to days, while imaging the cells in the different cell channels. The AST test starts by flowing different antibiotics or a same antibiotic but at different concentrations into the different sets 2A, 2B, 2C of cell channels using the first fluid ports 31A, 31B, 31C as input ports, while using the common second fluid ports 33A, 33B, 33C and the common third fluid port 51 as output ports. Susceptibility is monitored by the phenotypic response to antibiotic in the different cell channels. For example, it is possible to determine the average growth rate and the cell to cell distribution of growth rates just by monitoring the length extension in phase contrast using automatics images analysis routines. These measurements can be averaged over cells in many cell channels such that it is possible to determine minute phenotypic changes within a few minutes. Phenotypic changes can also be in morphological changes, such as the compaction of DNA or changes in membrane structure or in integrity. Some phenotypic changes are best studied by addition of test agents, such as 4′,6-diamidino-2-phenylindole (DAPI) and SYTOX® fluorescent stains, that can be monitored in a florescence channel.\nThe E. coli strain was exposed to (1) no drug marked with “x”, (2) erythromycin at 120 μg/ml marked with diamonds or (3) ciprofloxacin 10 μg/ml marked with circles. The time point 0 min corresponds to the start of the treatment. The curve corresponding to treatment with the drug (erythromycin) for which the strain is susceptible can be distinguished from the no treatment curve in <10 min. The curve corresponding to treatment with the drug for which the strain is susceptible can be distinguished from the curve corresponding to the drug (ciprofloxacin) for which the strain is resistant in <15 min."}, "[5]": {"test_system": "ciprofloxacin resistant E. coli strain DA20859", "assay": "minimum inhibitory concentration (MIC)", "format": "cell-based", "conditions": "Escherichia coli"}, "[6]": {"test_system": "erythromycin-resistant E. coli strain", "assay": "minimum inhibitory concentration (MIC)", "format": "cell-based", "conditions": "Escherichia coli"}, "[7]": {"test_system": "erythromycin-susceptible (non-resistant) E. coli strains", "assay": "minimum inhibitory concentration (MIC)", "format": "cell-based", "conditions": "Escherichia coli; two non-resistant E. coli strains (circles and diamonds in FIG. 17)"}, "[8]": {"test_system": "erythromycin-resistant and erythromycin-susceptible E. coli strains", "assay": "AST in microfluidic device, average growth rate response (FIG. 17)", "format": "cell-based, Escherichia coli", "conditions": "120 μg/ml erythromycin at time 0 min", "text": "The microfluidic device of the embodiments can be used for various applications. An example of such application is antibiotic susceptibility testing (AST). For example, the microfluidic device 1 shown in FIG. 10 can be used for this purpose. In such a case, the sample strain can be loaded from, for instance, the common second fluid port 33A using the first fluid ports 31A′, 31B′, 31C′ as output ports for excess cells and culture medium and the common third fluid port 51 as output port for culture medium and for sucking cells into the cell channels. In an example, during loading culture medium is flown from the common second fluid port 33C to the common second fluid port 33B to prevent contaminating the common second fluid port 33C. After cell loading culture medium preferably flows from the common second fluid port 33C using the first fluid ports 31A′, 31B′, 31C′ and the common third fluid port 51 as output ports. At this stage growth of the cells in the cell channels can be monitored for some time, 0 min to days, while imaging the cells in the different cell channels. […] Susceptibility is monitored by the phenotypic response to antibiotic in the different cell channels. […] Some phenotypic changes are best studied by addition of test agents, such as 4′,6-diamidino-2-phenylindole (DAPI) and SYTOX® fluorescent stains, that can be monitored in a florescence channel."}}}
{"smiles": "O=C(N[C@H](CO)[C@H](O)c1ccc([N+](=O)[O-])cc1)C(Cl)Cl", "note": "[chloramphenicol]", "values": [{"measurement": "MIC", "setting": "[1]", "result": "~4", "unit": "µg/mL"}, {"measurement": "growth of susceptible strain compared with resistant strain", "setting": "[2]", "result": "grown much less than the chloramphenicol-resistant strain"}, {"measurement": "MIC", "setting": "[3]", "result": "> 12", "unit": "µg/mL"}]}
{"smiles": "O=C(O)c1cn(C2CC2)c2cc(N3CCNCC3)c(F)cc2c1=O", "note": "[ciprofloxacin]", "values": [{"measurement": "susceptibility of the strain to the drug", "setting": "[4]", "result": "resistant"}, {"measurement": "MIC", "setting": "[5]", "result": "~30", "unit": "µg/mL"}]}
{"smiles": "CC[C@H]1OC(=O)[C@H](C)[C@@H](O[C@H]2C[C@@](C)(OC)[C@@H](O)[C@H](C)O2)[C@H](C)[C@@H](O[C@@H]2O[C@H](C)C[C@H](N(C)C)[C@H]2O)[C@](C)(O)C[C@@H](C)C(=O)[C@H](C)[C@@H](O)[C@]1(C)O", "note": "[erythromycin]", "values": [{"measurement": "MIC", "setting": "[6]", "result": 256, "unit": "µg/mL"}, {"measurement": "MIC", "setting": "[7]", "result": "~12", "unit": "µg/mL"}, {"measurement": "susceptibility of the strain to the drug", "setting": "[4]", "result": "susceptible"}, {"measurement": "time in which treatment curve can be distinguished from no treatment curve (average growth rate)", "setting": "[4]; erythromycin 120 μg/ml", "result": "< 10", "unit": "min"}, {"measurement": "time in which curve of drug for which strain is susceptible can be distinguished from curve of drug for which strain is resistant", "setting": "[4]; erythromycin 120 μg/ml versus ciprofloxacin 10 μg/ml", "result": "< 15", "unit": "min"}, {"measurement": "time in which resistant strain can be distinguished from susceptible strains (average growth rate)", "setting": "[8]", "result": "less than 20 min"}]}
